{
  "source": "patent US12084471B2",
  "about": "“Amino acid derivative of glucosamine stimulating extracellular matrix synthesis and pharmaceutical composition comprising the same” (CARTILAGO S.R.L., priority 2018, dated 2024)",
  "key": {"[1]": {"test_system": "osteoarthritic knees of rabbits", "experiment": "in vivo model of OA in rabbit, intra-articular administration", "settings": "rabbit OA knee"}, "IKKα [2]": {"molecular_target": "T1, IKKα (Homo sapiens, UniProt O15111)", "T1 sequence (O15111 1-745)": "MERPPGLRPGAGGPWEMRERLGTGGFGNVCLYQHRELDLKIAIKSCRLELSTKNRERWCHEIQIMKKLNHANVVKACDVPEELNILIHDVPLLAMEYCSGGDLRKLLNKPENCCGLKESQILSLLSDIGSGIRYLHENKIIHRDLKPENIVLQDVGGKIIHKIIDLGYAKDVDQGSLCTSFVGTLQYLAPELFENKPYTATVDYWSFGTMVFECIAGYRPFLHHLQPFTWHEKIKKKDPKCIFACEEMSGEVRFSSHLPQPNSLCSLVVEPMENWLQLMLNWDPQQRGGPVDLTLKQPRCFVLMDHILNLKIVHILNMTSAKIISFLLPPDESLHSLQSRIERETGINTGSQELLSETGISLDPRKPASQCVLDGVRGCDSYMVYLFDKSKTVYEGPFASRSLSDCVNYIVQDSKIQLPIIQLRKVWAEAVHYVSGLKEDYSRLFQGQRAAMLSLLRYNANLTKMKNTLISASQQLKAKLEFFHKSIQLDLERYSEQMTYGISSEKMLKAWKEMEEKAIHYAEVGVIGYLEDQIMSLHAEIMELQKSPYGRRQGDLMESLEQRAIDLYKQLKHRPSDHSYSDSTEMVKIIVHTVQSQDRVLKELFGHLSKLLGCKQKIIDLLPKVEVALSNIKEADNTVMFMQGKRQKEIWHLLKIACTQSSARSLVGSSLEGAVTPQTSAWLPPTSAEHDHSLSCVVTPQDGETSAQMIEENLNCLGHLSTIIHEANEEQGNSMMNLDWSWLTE", "experiment": "kinase activity of IKKα", "format": "cell-based", "procedure": "(§1) To clarify the molecular mechanism, glucosamine-derived N-acetyl-phenylalanine has been studied in vitro, using primary cultured chondrocytes. The chondrocytes were stimulated with IL-1 in order to study the inflammatory pathway, controlled by the Activator Protein (AP)-1. […] The efficacy of interfering with the inflammatory pathway controlled by the transcription factor Nuclear Factor-κB (NF-κB) was then analyzed, which in turn is controlled by the IKK complex consisting of two IKKα and IKKβ kinases."}, "[3]": {"test_system": "fibroblasts stimulated with UVB", "experiment": "fibroblasts stimulated with UVB", "format": "cell-based", "from_the_text": "This discovery promptly aroused in the inventors an interest in the ability of this class of products to intervene in the remodeling of the cutaneous ECM, in which the relative alteration of turnover leads to atrophy of the skin, with consequent aging of the skin and in some cases even to onset of skin cancer processes."}, "c-jun": {"test_system": "c-jun", "experiment": "activation of c-jun (AP-1 component) in primary cultured chondrocytes stimulated with IL-1", "format": "cell-based", "procedure": "as §1"}, "[4]": {"test_system": "osteoarthritic knees of mice", "experiment": "in vivo model of OA in mice, intra-articular administration", "settings": "mice OA knee"}, "IKKβ": {"molecular_target": "T2, IKKβ (Homo sapiens, UniProt O14920)", "T2 sequence (O14920 1-756)": "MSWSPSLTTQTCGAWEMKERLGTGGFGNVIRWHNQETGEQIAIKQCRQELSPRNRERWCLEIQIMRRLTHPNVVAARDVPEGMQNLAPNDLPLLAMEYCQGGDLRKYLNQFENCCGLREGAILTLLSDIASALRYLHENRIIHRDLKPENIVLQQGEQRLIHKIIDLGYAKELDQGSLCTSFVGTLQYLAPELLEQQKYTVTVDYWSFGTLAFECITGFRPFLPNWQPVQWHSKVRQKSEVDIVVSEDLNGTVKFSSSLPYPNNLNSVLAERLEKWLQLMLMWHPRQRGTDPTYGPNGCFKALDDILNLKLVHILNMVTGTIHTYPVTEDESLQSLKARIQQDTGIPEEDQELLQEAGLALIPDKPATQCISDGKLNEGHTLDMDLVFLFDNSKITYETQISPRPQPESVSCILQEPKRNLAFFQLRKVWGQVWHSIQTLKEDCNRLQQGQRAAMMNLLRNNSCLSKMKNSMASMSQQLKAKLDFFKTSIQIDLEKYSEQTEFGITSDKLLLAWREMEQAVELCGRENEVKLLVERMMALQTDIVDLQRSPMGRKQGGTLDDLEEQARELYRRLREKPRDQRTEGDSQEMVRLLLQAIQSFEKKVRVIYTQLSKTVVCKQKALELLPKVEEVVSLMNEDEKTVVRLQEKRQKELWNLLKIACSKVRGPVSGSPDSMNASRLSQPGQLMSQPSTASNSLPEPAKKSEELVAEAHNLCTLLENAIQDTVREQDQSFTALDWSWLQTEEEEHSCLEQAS", "experiment": "kinase activity of IKKβ", "format": "cell-based", "procedure": "as §1"}, "HAS-2": {"test_system": "HAS-2", "experiment": "expression of hyaluronic acid synthetase (HAS-2) and production of hyaluronic acid", "format": "cell-based"}, "IKKα [5]": {"molecular_target": "T1, IKKα", "experiment": "translocation of IKKα kinase in the nucleus, primary cultured chondrocytes", "format": "cell-based", "procedure": "as §1"}, "JNK": {"test_system": "JNK", "experiment": "JNK phosphorylation in primary cultured chondrocytes stimulated with IL-1", "format": "cell-based", "procedure": "as §1"}, "p38": {"test_system": "p38", "experiment": "p38 phosphorylation in primary cultured chondrocytes stimulated with IL-1", "format": "cell-based", "procedure": "as §1"}, "[6]": {"test_system": "human primary chondrocytes", "experiment": "human primary chondrocytes cultured in three dimensions as spheroids, ECM synthesis", "format": "cell-based", "settings": "human chondrocyte spheroids, compound alone", "procedure": "Finally, in order to understand which intracellular pathways are activated by said N-acetyl-phenylalanine derived from glucosamine to stimulate ECM synthesis, further in vitro studies in human primary chondrocytes were conducted. In order to simulate physiological conditions, the culture of human chondrocytes was carried out in three dimensions, cultivating the cells in the form of spheroids."}},
  "data": [
    {"smiles": "CC(=O)N[C@H](Cc1ccccc1)C(=O)NC1C(O)OC(CO)C(O)C1O", "note": "(stereo partly drawn) [N-acetyl-phenylalanine derivative of glucosamine]", "values": [
      {"measurement": "cartilage structure", "setting": "[1]", "value": "structure very similar to the healthy one"},
      {"measurement": "synthesis of new ECM", "setting": "[1]", "value": "stimulated the synthesis of new ECM"},
      {"measurement": "kinase activity of IKKα", "setting": "IKKα [2]", "value": "selectively inhibiting the kinase activity of IKKα"},
      {"measurement": "synthesis of type I collagen", "setting": "[3]; UVB-stimulated fibroblasts, synthesis blocked by UVB treatment", "value": "restore the synthesis of type I collagen"},
      {"measurement": "inflammatory pathways stimulated by UVB", "setting": "[3]; compound added to culture medium of UVB-stimulated fibroblasts", "value": "able to counteract the inflammatory pathways"},
      {"measurement": "activation of c-jun", "setting": "c-jun", "value": "influencing the activation of c-jun"},
      {"measurement": "cartilage structure", "setting": "[4]", "value": "structure very similar to the healthy one"},
      {"measurement": "synthesis of new ECM", "setting": "[4]", "value": "stimulated the synthesis of new ECM"},
      {"measurement": "kinase activity of IKKβ", "setting": "IKKβ", "value": "not IKKβ"},
      {"measurement": "expression of the enzyme synthetase of hyaluronic acid (HAS-2)", "setting": "HAS-2", "value": "stimulate the expression"},
      {"measurement": "production of hyaluronic acid (HA)", "setting": "HAS-2", "value": "stimulate"},
      {"measurement": "translocation in the nucleus of the IKKα kinase", "setting": "IKKα [5]", "value": "inhibited the translocation in the nucleus"},
      {"measurement": "phosphorylation of JNK", "setting": "JNK", "value": "inhibiting the phosphorylation"},
      {"measurement": "phosphorylation of p38", "setting": "p38", "value": "inhibiting the phosphorylation"},
      {"measurement": "synthesis of type II collagen", "setting": "[6]", "value": "stimulated the synthesis of type II collagen"}
    ]}
  ]
}
